We go through four molecules from patent US11530200B2, “Compounds” (Inflazome Limited, priority 2018, dated 2022).

The term IC50 denotes the midpoint of a concentration-inhibition curve. Lower therefore signals greater potency. As a reminder, the AUC is the area under the concentration-time curve, a measure of exposure. The low end stands for low exposure, the high end for high exposure. As usually defined, the clearance is the rate of elimination divided by the concentration. As a reminder, the half-life is the time in which the quantity being followed falls by half. A low value points to fast loss.

In data set [1] the target is NLRP3 (Homo sapiens (Human), UniProt Q96P20). The experiment in a line: THP-1 cells pyroptosis assay (LPS priming, nigericin, resazurin readout). It counts as cell-based. The conditions noted are these: 1.0 μg/ml LPS, nigericin 5 μM, NLRP3 inhibitory activity. On the procedure: THP-1 cells (ATCC #TIB-202) were grown in RPMI containing L-glutamine (Gibco #11835) supplemented with 1 mM sodium pyruvate (Sigma #S8636) and penicillin (100 units/ml)/streptomycin (0.1 mg/ml) (Sigma #P4333) in 10% Fetal Bovine Serum (FBS) (Sigma #F0804). The cells were routinely passaged and grown to confluency (10^6 cells/ml). On the day of the experiment, THP-1 cells were harvested and resuspended into RPMI medium (without FBS). The cells were then counted and viability (>90%) checked by Trypan blue (Sigma #T8154). Appropriate dilutions were made to give a concentration of 625,000 cells/ml. To this diluted cell solution was added LPS (Sigma #L4524) to give a 1 μg/ml Final Assay Concentration (FAC). 40 μl of the final preparation was aliquoted into each well of a 96-well plate. The plate thus prepared was used for compound screening. The following method step-by-step assay was followed for compound screening. • 1. Seed THP-1 cells (25,000 cells/well) containing 1.0 μg/ml LPS in 40 μl of RPMI medium (without FBS) in 96-well, black walled, clear bottom cell culture plates coated with poly-D-lysine (VWR #734-0317) • 2. Add […] compound (8 points half-log dilution, with […] top dose) or vehicle (DMSO 0.1% FAC) to the appropriate wells • 3. Incubate for 3 hrs at 37° C., 5% CO2 • 4. Add 5 μl nigericin (Sigma #N7143) (FAC 5 μM) to all wells • 5. Incubate for 1 hr at 37° C., 5% CO2 • 6. At the end of the incubation period, spin plates at 300×g for 3 mins and remove supernatant • 7. Then add 50 μl of resazurin (Sigma #R7017) (FAC 100 μM resazurin in RPMI medium without FBS) and incubate plates for a further 1-2 hrs at 37° C. and 5% CO2 • 8. Plates were read in an Envision reader at Ex 560 nm and Em 590 nm • 9. IC50 data is fitted to a non-linear regression equation (log inhibitor vs response-variable slope 4-parameters) The results of the pyroptosis assay are summarised in Table 1 below as THP IC50.
A general note: The colour change of resazurin is a common sign of viable cells or microbes.

Data set [2] is described as follows: PK protocol, intravenous administration in rats. The conditions noted are these: rat, plasma, male Sprague Dawley rats, 1 mg/kg; for Vd: read-out: Vdss. Format: in vivo. On the procedure: Pharmacokinetic parameters were determined in male Sprague Dawley rats (Vital River Laboratory Animal Technology Co Ltd, Beijing, China, 7-9 weeks old). Animals were group housed during the study and maintained under a 12 h light/dark cycle. For intravenous administration, compounds were formulated as a solution in DMSO:PBS [10:90] in 2 mL/kg dosing volume and administered via tail vein. Serial blood samples (about 200 μL) were taken from each animal at each of 8 time-points post dose (0.083, 0.25, 0.5, 1, 2, 4, 8 and 24 h). Samples were held on ice for no longer than 30 minutes before centrifugation (5,696 rpm (3,000 g) for 15 minutes) for plasma generation. Plasma was frozen on dry ice prior to bioanalysis. PK parameters were generated from LC-MS/MS data using Phoenix WinNonlin 6.3 software.

Molecules are shown by their SMILES. Where a name gives a salt, the structure may show the parent alone.

Chain of NLRP3 (Q96P20 whole entry): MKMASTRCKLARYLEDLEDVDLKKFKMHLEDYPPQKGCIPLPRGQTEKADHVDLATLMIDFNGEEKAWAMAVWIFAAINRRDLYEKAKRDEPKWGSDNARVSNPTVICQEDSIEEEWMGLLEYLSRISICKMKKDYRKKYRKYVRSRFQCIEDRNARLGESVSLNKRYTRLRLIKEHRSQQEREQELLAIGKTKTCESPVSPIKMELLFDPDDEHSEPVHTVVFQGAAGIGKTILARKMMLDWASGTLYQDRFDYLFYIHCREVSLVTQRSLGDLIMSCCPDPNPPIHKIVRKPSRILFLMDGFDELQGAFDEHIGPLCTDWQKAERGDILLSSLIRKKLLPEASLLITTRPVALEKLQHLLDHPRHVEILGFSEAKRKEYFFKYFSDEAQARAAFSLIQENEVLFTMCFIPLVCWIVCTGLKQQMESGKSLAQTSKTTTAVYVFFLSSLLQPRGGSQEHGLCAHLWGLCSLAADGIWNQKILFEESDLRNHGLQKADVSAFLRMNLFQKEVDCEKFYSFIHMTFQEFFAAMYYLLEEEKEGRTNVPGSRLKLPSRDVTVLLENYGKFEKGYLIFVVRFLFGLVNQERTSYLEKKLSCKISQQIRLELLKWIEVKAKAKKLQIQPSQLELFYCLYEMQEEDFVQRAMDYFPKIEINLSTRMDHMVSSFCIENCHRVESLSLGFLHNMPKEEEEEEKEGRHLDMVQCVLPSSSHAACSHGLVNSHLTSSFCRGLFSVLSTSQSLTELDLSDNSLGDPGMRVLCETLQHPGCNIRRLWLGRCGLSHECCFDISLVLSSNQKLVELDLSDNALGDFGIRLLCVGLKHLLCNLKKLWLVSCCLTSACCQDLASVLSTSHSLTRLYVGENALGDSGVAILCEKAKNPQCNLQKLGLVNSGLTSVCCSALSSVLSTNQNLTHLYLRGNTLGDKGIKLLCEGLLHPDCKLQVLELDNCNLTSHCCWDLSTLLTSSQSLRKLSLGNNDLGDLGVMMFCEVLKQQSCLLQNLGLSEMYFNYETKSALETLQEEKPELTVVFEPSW

In data set [1], `CC(C)c1cc(F)cc(-c2cccnc2)c1CC(=O)NS(=O)(=O)c1cnn(C2CC2)c1` [Example 11, N-((1-Cyclopropyl-1H-pyrazol-4-yl)sulfonyl)-2-(4-fluoro-2-isopropyl-6-(pyridin-3-yl)phenyl)acetamide] showed an IC50 of 1 to 5 µM. Further, in data set [2], the area under the curve (AUC) was 1560 ng·h/mL, the clearance amounted to 10.7 mL/min/kg, the half-life is 4.4 h and the Vd was found to be 0.95 L/kg.

Regarding `COc1cc(-c2cc(F)cc(C(C)C)c2CC(=O)NS(=O)(=O)c2cnn(C3CC3)c2)ccn1` [Example 18, N-((1-Cyclopropyl-1H-pyrazol-4-yl)sulfonyl)-2-(4-fluoro-2-isopropyl-6-(2-methoxypyridin-4-yl)phenyl)acetamide, potassium salt], the IC50 in data set [1] is at most 1 µM. For the same molecule, in data set [2], the AUC is 1550 ng·h/mL, the clearance came to 15.4 mL/min/kg, the half-life was 16.4 h and the Vd turned out to be 6.52 L/kg.

In the case of `COc1cc(-c2cc(F)cc(C(C)C)c2CC(=O)NS(=O)(=O)c2ncn(C3CC3)n2)ccn1` [Example 21, N-((1-Cyclopropyl-1H-1,2,4-triazol-3-yl)sulfonyl)-2-(4-fluoro-2-isopropyl-6-(2-methoxypyridin-4-yl)phenyl)acetamide], the 50% inhibitory concentration (IC50) in data set [1] lay within 1 to 5 µM. Moreover, in data set [2], the AUC was found to be 827 ng·h/mL, the clearance was 20.2 mL/min/kg, the half-life is 9.3 h and the Vd is 6.15 L/kg.

With `CC(C)c1cc(F)cc(C(C)C)c1CC(=O)NS(=O)(=O)c1cnn(C2CC2)c1` [Example 24, N-((1-Cyclopropyl-1H-pyrazol-4-yl)sulfonyl)-2-(4-fluoro-2,6-diisopropylphenyl)acetamide], the IC50 in data set [1] is 1 to 5 µM. For the same molecule, in data set [2], the AUC is 1270 ng·h/mL, the clearance was found to be 13.1 mL/min/kg, the half-life was 2.6 h and the Vd was 1.94 L/kg.
